Active and inactive are the calls of the source. The rule behind the calls is not given here.
What was measured:
Tubulin (Sus scrofa) = Tubulin (Sus scrofa) (UniProt P02554+P02550); experiment: Inhibition of pig brain tubulin polymerization at 25 uM measured after 15 mins by fluorescence based turbidimetry; format: tissue-based
PC-3 = experiment: cells; details: Homo sapiens, PC-3, 48 h
Description: Antiproliferative activity against human PC-3 cells assessed as inhibition of cell growth incubated for 48 hrs by propidium iodide staining based fluorometer assay

MCF7 = experiment: Antiproliferative activity against human MCF7 cells assessed as inhibition of cell growth incubated for 48 hrs by propidium iodide staining based fluorometer assay; format: functional; details: MCF7, 48 h
L5178Y [1] = experiment: Reversal of multidrug resistance in mouse L5178Y cells transfected with human MDR1 assessed as reversal of rhodamine 123 accumulation at 50 ug/ml incubated for 30 mins by flow cytometry; format: functional, cell-based; details: dose 50.0 µg/ml
[2] = Inhibition of full length mouse GST-tagged BRAF V600E mutant preincubated for 60 mins followed by addition of N-terminal His-tagged full length human MEK1 incubated for 25 mins in presence of ATP by ELISA assay
NCI-H460 = experiment: cells; details: Homo sapiens, NCI-H460, 48 h
Description: Antiproliferative activity against human NCI-H460 cells assessed as inhibition of cell growth incubated for 48 hrs by propidium iodide staining based fluorometer assay

[3] = target: Epidermal growth factor receptor (Homo sapiens, UniProt P00533); experiment: Inhibition of recombinant 6His-tagged EGFR cytoplasmic domain (645 to 1186 residues) (unknown origin) autophosphorylation expressed in baculovirus infected Sf9 insect cells preincubated for 10 mins followed by ATP and MgCl2 addition measured after 60 mins by DELFIA/time-resolved fluorometric analysis
A549 = experiment: Antiproliferative activity against human A549 cells assessed as inhibition of cell growth incubated for 48 hrs by propidium iodide staining based fluorometer assay; format: functional; details: A549, 48 h
MIA PaCa-2 = experiment: Antiproliferative activity against human MIA PaCa-2 cells assessed as inhibition of cell growth incubated for 48 hrs by propidium iodide staining based fluorometer assay; format: functional; details: MIA PaCa-2, 48 h
Sus scrofa = species: Sus scrofa; experiment: Induction of pig brain microtubule stabilization at 25 uM measured after 15 mins by fluorescence based turbidimetry; format: tissue-based
[4] = Toxicity in mouse L5178Y cells transfected with human MDR1 at 50 ug/ml after short period of incubation by tryptan blue assay; format: cell-based; details: dose 50 µg/ml
L5178Y [5] = experiment: Reversal of multidrug resistance in mouse L5178Y cells transfected with human MDR1 assessed as reversal of rhodamine 123 accumulation at 5 ug/ml incubated for 30 mins by flow cytometry; format: functional, cell-based; details: dose 5.0 µg/ml
HT-29 = experiment: cells; details: Homo sapiens, HT-29, 48 h
Description: Antiproliferative activity against human HT-29 cells assessed as inhibition of cell growth incubated for 48 hrs by propidium iodide staining based fluorometer assay

[6] = Cytotoxicity against human MCF-10A cells assessed as cell viability incubated for 96 hrs by MTT assay; format: toxicity, cell-based; design: concentration or dose not given beside the values; details: read-out: Activity
PANC-1 = experiment: cells; details: Homo sapiens, PANC-1, 48 h
Description: Antiproliferative activity against human PANC-1 cells assessed as inhibition of cell growth incubated for 48 hrs by propidium iodide staining based fluorometer assay

Chain of Epidermal growth factor receptor (P00533 whole entry, the tested form may be a part): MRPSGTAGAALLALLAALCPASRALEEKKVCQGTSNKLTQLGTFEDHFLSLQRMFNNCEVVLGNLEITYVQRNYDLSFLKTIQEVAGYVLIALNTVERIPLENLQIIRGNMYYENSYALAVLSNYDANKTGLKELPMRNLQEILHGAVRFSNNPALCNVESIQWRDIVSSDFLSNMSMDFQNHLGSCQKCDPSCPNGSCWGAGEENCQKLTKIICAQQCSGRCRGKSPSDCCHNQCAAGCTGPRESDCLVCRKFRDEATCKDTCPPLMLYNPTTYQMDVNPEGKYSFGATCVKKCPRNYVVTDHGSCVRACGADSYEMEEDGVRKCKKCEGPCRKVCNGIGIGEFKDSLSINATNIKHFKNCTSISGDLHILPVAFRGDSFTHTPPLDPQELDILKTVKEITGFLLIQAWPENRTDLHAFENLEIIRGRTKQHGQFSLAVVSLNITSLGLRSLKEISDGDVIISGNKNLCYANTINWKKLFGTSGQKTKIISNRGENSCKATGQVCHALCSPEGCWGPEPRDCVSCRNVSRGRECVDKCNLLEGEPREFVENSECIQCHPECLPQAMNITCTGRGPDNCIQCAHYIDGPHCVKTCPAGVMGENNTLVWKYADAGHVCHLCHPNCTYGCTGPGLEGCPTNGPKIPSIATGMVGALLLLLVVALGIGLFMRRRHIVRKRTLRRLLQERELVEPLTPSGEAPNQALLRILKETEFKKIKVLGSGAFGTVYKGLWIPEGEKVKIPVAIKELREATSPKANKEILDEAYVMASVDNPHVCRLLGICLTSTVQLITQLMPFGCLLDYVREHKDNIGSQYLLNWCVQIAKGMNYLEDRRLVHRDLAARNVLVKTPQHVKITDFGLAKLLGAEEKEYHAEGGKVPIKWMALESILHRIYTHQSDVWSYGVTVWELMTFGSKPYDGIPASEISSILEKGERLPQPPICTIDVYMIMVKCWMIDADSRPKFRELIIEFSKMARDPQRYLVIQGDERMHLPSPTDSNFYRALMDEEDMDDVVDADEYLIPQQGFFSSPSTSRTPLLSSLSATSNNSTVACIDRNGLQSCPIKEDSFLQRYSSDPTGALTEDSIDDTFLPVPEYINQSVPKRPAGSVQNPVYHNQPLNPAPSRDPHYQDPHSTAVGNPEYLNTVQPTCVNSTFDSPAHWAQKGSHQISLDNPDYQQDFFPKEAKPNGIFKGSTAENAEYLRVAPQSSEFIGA
Chain of Tubulin (Sus scrofa) (P02550 whole entry, looked up): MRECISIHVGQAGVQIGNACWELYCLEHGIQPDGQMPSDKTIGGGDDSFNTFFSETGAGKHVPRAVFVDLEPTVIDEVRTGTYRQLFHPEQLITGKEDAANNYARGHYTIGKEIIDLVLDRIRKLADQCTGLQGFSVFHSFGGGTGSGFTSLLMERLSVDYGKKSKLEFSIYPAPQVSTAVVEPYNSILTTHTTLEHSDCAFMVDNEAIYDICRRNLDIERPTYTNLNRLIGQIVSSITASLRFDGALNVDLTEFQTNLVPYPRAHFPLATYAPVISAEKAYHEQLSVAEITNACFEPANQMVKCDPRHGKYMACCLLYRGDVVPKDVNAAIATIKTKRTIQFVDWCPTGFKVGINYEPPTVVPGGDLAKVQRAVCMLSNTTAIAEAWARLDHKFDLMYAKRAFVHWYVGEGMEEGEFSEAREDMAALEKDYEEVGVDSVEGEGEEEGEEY
Chain of Tubulin (Sus scrofa) (P02554 whole entry, looked up): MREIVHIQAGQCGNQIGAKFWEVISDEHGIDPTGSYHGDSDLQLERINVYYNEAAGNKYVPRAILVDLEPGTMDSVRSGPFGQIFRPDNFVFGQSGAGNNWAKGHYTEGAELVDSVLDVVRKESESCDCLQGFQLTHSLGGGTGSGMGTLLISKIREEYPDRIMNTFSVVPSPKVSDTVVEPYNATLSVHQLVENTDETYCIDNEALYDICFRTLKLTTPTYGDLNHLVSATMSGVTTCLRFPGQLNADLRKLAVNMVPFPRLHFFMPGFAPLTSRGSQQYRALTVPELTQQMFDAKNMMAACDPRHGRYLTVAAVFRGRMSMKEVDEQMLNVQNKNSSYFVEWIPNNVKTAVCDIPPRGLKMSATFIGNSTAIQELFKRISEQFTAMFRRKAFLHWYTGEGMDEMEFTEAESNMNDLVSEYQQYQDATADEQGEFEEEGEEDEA

| Structure (SMILES) | inhibition (Tubulin (Sus scrofa)) | IC50 (PC-3) [nM] | IC50 (MCF7) [nM] | Activity (L5178Y [1]) | IC50 [2] [nM] | IC50 (NCI-H460) [nM] | IC50 [3] [nM] | IC50 (A549) [nM] | IC50 (MIA PaCa-2) [nM] | Activity (Sus scrofa) | Activity [4] | Activity (L5178Y [5]) | IC50 (HT-29) [nM] | viability at 96 h [6] [%] | IC50 (PANC-1) [nM] | IC50 ([3]; sf9) [nM] |
| --- | --- | --- | --- | --- | --- | --- | --- | --- | --- | --- | --- | --- | --- | --- | --- | --- |
| COc1ccc(OC)c2c1CCC(=C\c1cc(OC)c(OC)c(OC)c1Br)/C2=N\O | Active | 700 | 500 | Active | 1800 | 600 | 4200 | 400 | 600 | inactive | Non-Toxic | inactive | 600 | 89 | 700 |  |
| CCN(CC)CCON=C1/C(=C/c2cc(OC)c(OC)c(OC)c2Br)CN(C)C/C1=C\c1cc(OC)c(OC)c(OC)c1Br | inactive | 80 | 90 | inactive | 3200 | 70 | 100 | 70 | 80 | inactive | Non-Toxic | inactive | 90 | 95 | 90 |  |
| COc1cc2c(cc1OC)C(=N/O)/C(=C/c1cc(OC)c(OC)c(OC)c1Br)CC2 | Active | 2200 | 2200 | Active | 6300 | 2600 | 8400 | 1900 | 2900 | inactive | Non-Toxic | inactive | 2200 | 92 | 2100 |  |
| COc1cc(/C=C2\CC(C)C/C(=C\c3cc(OC)c(OC)c(OC)c3Br)C2=NO)c(Br)c(OC)c1OC (stereo not given) | Active | 400 | 400 | inactive | 2700 | 400 |  | 300 | 700 | inactive | Non-Toxic | inactive | 400 | 98 | 200 | 500 |
| COc1cc(/C=C2\CN(C)C/C(=C\c3cc(OC)c(OC)c(OC)c3Br)C2=NO)c(Br)c(OC)c1OC | inactive | 90 | 60 | inactive | 1600 | 80 | 70 | 60 | 70 | inactive | Non-Toxic | inactive | 70 | 96 | 90 |  |
| COc1cc(/C=C2\CCc3ccc([N+](=O)[O-])cc3\C2=N\O)c(Br)c(OC)c1OC | Active | 20 | 90 | Active | 1000 | 40 | 1900 | 20 | 20 | inactive | Non-Toxic | inactive | 30 | 96 | 20 |  |
| COc1ccc(/C=C2\CCc3ccc([N+](=O)[O-])cc3\C2=N\O)c(Cl)c1OC | Active | 20 | 70 | Active | 900 | 80 | 2000 | 80 | 90 | inactive | Non-Toxic | inactive | 90 | 93 | 90 |  |
